Where a SMILES comes first, the peptide text is derived from it. Bridges are numbered along the chain shown (N, C = ends). [ ]: non-standard residue; d: D form. hPhe(3-Cl-4-CF3) = N[C@@H](CCc1ccc(C(F)(F)F)c(Cl)c1)C(=O)O; NPrPhe(4-CF3) = CCCN[C@@H](Cc1ccc(C(F)(F)F)cc1)C(=O)O; NMeGly(cPent) = CN[C@H](C(=O)O)C1CCCC1; Pro(4,4-F2) = O=C(O)[C@@H]1CC(F)(F)CN1; NMeD = CN[C@@H](CC(=O)O)C(=O)O; NMeL = CN[C@@H](CC(C)C)C(=O)O; Aze = O=C(O)[C@@H]1CCN1; Ac4c = NC1(C(=O)O)CCC1; Sar = CNCC(=O)O
What was measured:
[1] = target: GDP-bound HRAS wild-type protein (Homo sapiens, UniProt P01112); assay: Binding to HRAS by surface plasmon resonance (SPR), Single Cycle Kinetics
Chain of GDP-bound HRAS wild-type protein (P01112 whole entry): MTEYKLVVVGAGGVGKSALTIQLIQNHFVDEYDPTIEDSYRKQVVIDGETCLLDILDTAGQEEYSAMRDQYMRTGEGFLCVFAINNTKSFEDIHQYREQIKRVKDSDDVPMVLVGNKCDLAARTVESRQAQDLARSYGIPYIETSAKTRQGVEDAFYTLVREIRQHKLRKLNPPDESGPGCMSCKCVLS

[2] = target: GDP-bound NRAS wild-type protein (Homo sapiens, UniProt P01111); assay: Binding to NRAS by surface plasmon resonance (SPR), Single Cycle Kinetics
Chain of GDP-bound NRAS wild-type protein (P01111 whole entry): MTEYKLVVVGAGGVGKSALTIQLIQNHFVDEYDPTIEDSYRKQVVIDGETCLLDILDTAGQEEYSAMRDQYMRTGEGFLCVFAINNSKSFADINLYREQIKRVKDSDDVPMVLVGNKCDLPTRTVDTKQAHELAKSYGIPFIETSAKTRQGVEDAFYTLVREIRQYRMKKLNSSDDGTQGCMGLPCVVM

[3] = KD ratio, GDP-bound HRAS wild-type vs GDP-bound KRAS wild-type, SPR
[4] = KD ratio, GDP-bound NRAS wild-type vs GDP-bound KRAS wild-type, SPR
[5] = SPR, GDP-bound HRAS wild-type vs GDP-bound KRAS wild-type
[6] = SPR, GDP-bound NRAS wild-type vs GDP-bound KRAS wild-type

CCC[C@H]1C(=O)N[C@@H](CC(C)C)C(=O)N2C[C@@H](OC)C[C@H]2C(=O)N(C)[C@H]2C/C=C\CCN(C2=O)[C@@H](Cc2ccc(C)cc2)C(=O)N(C)CC(=O)N[C@@H](CCc2ccc(C(F)(F)F)c(OC)c2)C(=O)N2C[C@H](OCC)C[C@H]2C(=O)NC2(CC(C)(C)C2)C(=O)N(C)[C@@H](C2CCCC2)C(=O)N(C)[C@H](C(=O)N(C)C)CC(=O)N1C [PP2554]
HRAS/KRAS (ratio of KD value with respect to GDP-bound HRAS wild-type protein to KD value with respect to KRAS) ([1]; class symbols): B (a compound having 3 or more and less than 10 is denoted as B) | NRAS/KRAS (ratio of KD value with respect to GDP-bound NRAS wild-type protein to KD value with respect to KRAS) ([2]; class symbols): A (a compound having 10 or more and less than 20 is denoted as A)

CC[C@H](C)[C@@H]1NC(=O)[C@H](CC2CC2)N(C)C(=O)C[C@@H](C(=O)N(C)C)N(C)C(=O)[C@H](C2CCCC2)N(C)C(=O)C2(CC(C)(C)C2)NC(=O)[C@@H]2C[C@@H](C)CN2C(=O)[C@H](CCc2ccc(C(F)(F)F)c(OC)c2)NC(=O)CN(C)C(=O)[C@H](Cc2ccc(C)cc2)N2CC/C=C\C[C@@H](C2=O)N(C)C(=O)CN(C)C1=O [PP1901]
HRAS/KRAS (ratio of KD value for HRAS to KD value for KRAS) [1, 3]: B (a compound having 3 or more and less than 10 is denoted as B) | NRAS/KRAS (ratio of KD value for NRAS to KD value for KRAS) [2, 4]: A (a compound having 10 or more and less than 20 is denoted as A)

C=CCN1CC(=O)N(C)[C@H]2C/C=C\CCN(C2=O)[C@@H](Cc2ccc(C)cc2)C(=O)N(C)CC(=O)N[C@@H](CCc2ccc(C(F)(F)F)c(OC)c2)C(=O)N2C[C@H](OCC)C[C@H]2C(=O)NC2(CC(C)(C)C2)C(=O)N(C)[C@@H](C2CCCC2)C(=O)N(C)[C@H](C(=O)N(C)C)CC(=O)N(C)[C@@H](CC(C)C)C(=O)N[C@@H]([C@@H](C)CC)C1=O [PP2058]
HRAS/KRAS (ratio of KD value with respect to HRAS to KD value with respect to KRAS) [1, 5]: A (a compound having 10 or more and less than 20 is denoted as A) | NRAS/KRAS (ratio of KD value with respect to NRAS to KD value with respect to KRAS) [2, 6]: A (a compound having 10 or more and less than 20 is denoted as A)

CCOC[C@H]1C(=O)N[C@@H]([C@@H](C)CC)C(=O)N(C)CC(=O)N(C)[C@H]2C/C=C\CCN(C2=O)[C@@H](CC2CCCCC2)C(=O)N(C)CC(=O)N[C@@H](CCc2ccc(C(F)(F)F)c(Cl)c2)C(=O)N2C[C@H](OCC)C[C@H]2C(=O)NC2(CC(C)(C)C2)C(=O)N(C)[C@@H](C(CC)CC)C(=O)N(C)[C@H](C(=O)N(C)C)CC(=O)N1C [PP2488]
HRAS/KRAS (ratio of KD value with respect to HRAS to KD value with respect to KRAS) [1, 5]: A (a compound having 10 or more and less than 20 is denoted as A) | NRAS/KRAS (ratio of KD value with respect to NRAS to KD value with respect to KRAS) [2, 6]: A (a compound having 10 or more and less than 20 is denoted as A)

C=CCC[C@H]1C(=O)N[C@@H]([C@@H](C)CC)C(=O)N(C)CC(=O)N(C)[C@H]2CCCCCN(C2=O)[C@@H](Cc2ccc(C(F)(F)F)cc2)C(=O)N(C)CC(=O)N[C@@H](CCc2cc(F)c(C(F)(F)F)c(F)c2)C(=O)N2C[C@H](OCC)C[C@H]2C(=O)N[C@](C)(CC=C)C(=O)N(C)[C@@H](C2CCCC2)C(=O)N(C)[C@H](C(=O)N2CCOCC2)CC(=O)N1C [PP0879]
HRAS/KRAS (ratio of KD value with respect to HRAS to KD value with respect to KRAS) [1, 3]: B (a compound having 3 or more and less than 10 is denoted as B) | NRAS/KRAS (ratio of KD value with respect to NRAS to KD value with respect to KRAS) [2, 4]: B (a compound having 3 or more and less than 10 is denoted as B)

CCCN1C(=O)CN(C)C(=O)[C@@H]2CCN2C(=O)[C@H]([C@@H](C)CC)NC(=O)[C@H](CC(C)C)N(C)C(=O)C[C@@H](C(=O)N(C)C)N(C)C(=O)[C@H](C2CCCC2)N(C)C(=O)C2(CCC2)NC(=O)[C@@H]2CC(F)(F)CN2C(=O)[C@H](CCc2ccc(C(F)(F)F)c(Cl)c2)NC(=O)CN(C)C(=O)[C@@H]1Cc1ccc(C(F)(F)F)cc1 [PP0432] ([NMeL]I[Aze][Sar][NPrPhe(4-CF3)][Sar][hPhe(3-Cl-4-CF3)][Pro(4,4-F2)][Ac4c][NMeGly(cPent)][NMeD]-NMe2; lactam N-11)
HRAS/KRAS (ratio of KD value with respect to GDP-bound HRAS wild-type protein to KD value with respect to KRAS) ([1]; SPR): B (a compound having 3 or more and less than 10 is denoted as B) | NRAS/KRAS (ratio of KD value with respect to GDP-bound NRAS wild-type protein to KD value with respect to KRAS) ([2]; SPR): B (a compound having 3 or more and less than 10 is denoted as B)

CC[C@H](C)[C@@H]1NC(=O)[C@H](CC(C)C)N(C)C(=O)C[C@@H](C(=O)N2CCOCC2)N(CC)C(=O)[C@H](C2CCCC2)N(C)C(=O)C2(CCC2)NC(=O)[C@@H]2[C@H](O)CCN2C(=O)[C@H](CCc2cc(F)c(C(F)(F)F)c(F)c2)NC(=O)CN(C)C(=O)[C@H](Cc2ccc(C(F)(F)F)cc2)N2CCCCC[C@@H](C2=O)N(C)C(=O)CN(C)C1=O [PP0955]
HRAS/KRAS (ratio of KD value with respect to HRAS to KD value with respect to KRAS) [1, 3]: A (a compound having 10 or more and less than 20 is denoted as A) | NRAS/KRAS (ratio of KD value with respect to NRAS to KD value with respect to KRAS) [2, 4]: A (a compound having 10 or more and less than 20 is denoted as A)

From patent publication US20250230193A1, “CYCLIC COMPOUND HAVING SELECTIVE KRAS INHIBITORY EFFECT ON HRAS AND NRAS” (CHUGAI SEIYAKU KABUSHIKI KAISHA, priority 2022, published 2025)
